Laboratory results as given in the supplement of paper PMC4858399.
Counter-ions that a name gives are not always drawn.

Legend:
Conditions in all cases: exposure time 48 h
[1] = tested on: Caenorhabditis elegans N2; assay: AC50 for larval growth inhibition (Hill fit); higher = less potent
Outline: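 After 48 h at 20°C in K-medium with killed OP50, 1% DMSO and 0.5–200 µM chemical, synchronised C. elegans N2 L1 larvae (50 per well, 96-well plates) were sized individually as extinction on a COPAS Biosort. These values were log-transformed and averaged per well, and wells with fewer than 10 worms were excluded. The AC50 was derived from a constrained Hill fit by weighted genetic-algorithm regression, and out-of-range values are censored.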

[2] = tested on: Caenorhabditis elegans N2; assay: mean nematode size ln(EXT) after 48 h, plate-adjusted (DMSO control set to 6) (ln(EXT), control-adjusted); higher = larger nematodes / less growth inhibition
Outline: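 Synchronised C. elegans N2 L1 larvae (50 per well, 4–6 wells per treatment) were grown for 48 h at 20°C in K-medium with killed OP50, 1% DMSO and 0.5–200 µM chemical. The Biosort measured each worm's extinction, and debris was removed by a growth model. Values were natural-logged and averaged per well. Mean size was then plate-adjusted by subtracting the vehicle control mean and adding 6.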

[3] = tested on: Caenorhabditis elegans N2; assay: lowest effective concentration for larval growth inhibition (size below effect threshold); higher = less potent
Outline: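 Chemical exposure ran for 48 h at 20°C: 50 C. elegans N2 L1 larvae per 96-well in K-medium with killed bacteria, 1% DMSO and 0.5, 1, 5, 10, 50, 100 or 200 µM chemical. Extinction of each worm, read as size on the Biosort, was log-transformed and averaged by well. The lowest effective concentration is the first dose whose plate-adjusted mean size is below a fixed value and remains so at all higher doses; the value is 5.665.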

Row | SMILES | AC50 for larval growth inhibition [1] | mean nematode size ln(EXT) (ln) ([2]; 0.5 µM) | mean nematode size ln(EXT) (ln) ([2]; 1 µM) | mean nematode size ln(EXT) (ln) ([2]; 5 µM) | mean nematode size ln(EXT) (ln) ([2]; 10 µM) | mean nematode size ln(EXT) (ln) ([2]; 50 µM) | mean nematode size ln(EXT) (ln) ([2]; 100 µM) | mean nematode size ln(EXT) (ln) ([2]; 200 µM) | lowest effective concentration [3]
1 | COc1ccc(C(=O)Nc2nc3ccccc3c(NCc3ccccc3)c2C#N)cc1 [N-[4-(benzylamino)-3-cyanoquinolin-2-yl]-4-methoxybenzamide] | > 200 µM | 5.68 | 5.65 | 5.49 | 5.41 | 5.18 | 4.88 | 4.46 | 1 µM
2 | COP(=O)(OC)OC(Br)C(Cl)(Cl)Br (stereo not drawn) [Naled] | 95.8 µM | 5.83 | 5.69 | 5.51 | 5.53 | 4.87 | 4.66 | 3.88 | 5 µM
3 | c1ccc2ccccc2c1 [Naphthalene] | > 200 µM | 5.99 | 5.93 | 5.96 | 5.78 | 5.87 | 5.92 | 4.83 | 200 µM
4 | CCN(CC)C(=O)C(C)Oc1cccc2ccccc12 (stereo not drawn) [Napropamide] | 97.3 µM | 5.97 | 5.95 | 5.93 | 6 | 6.01 | 5.62 | 5.43 | 100 µM
5 | COc1ccc(S(=O)(=O)N2C(=O)[C@@](c3ccccc3OC)(N3C[C@H](O)C[C@H]3C(=O)N(C)C)c3cc(Cl)ccc32)c(OC)c1 [Nelivaptan] | > 200 µM | 5.95 | 5.76 | 5.72 | 5.83 | 5.7 | 5.48 | 5.44 | 100 µM
6 | O=C(Nc1ccc([N+](=O)[O-])cc1Cl)c1cc(Cl)ccc1O [Niclosamide] | 98.6 µM | 5.85 | 5.9 | 5.86 | 6.1 | 6.02 | 5.74 | 5.59 | 200 µM
7 | CN1CCC[C@H]1c1cccnc1 [Nicotine] | > 200 µM | 5.88 | 5.83 | 5.83 | 5.87 | 5.87 | 5.38 | 5.56 | 100 µM
8 | Clc1cccc(C(Cl)(Cl)Cl)n1 [Nitrapyrin] | 108 µM | 5.36 | 5.48 | 5.3 | 5.47 | 5.92 | 5.54 | 4.05 | 100 µM
9 | O=C(O)CN(CC(=O)O)CC(=O)O [Nitrilotriacetic acid] | > 200 µM | 5.78 | 5.83 | 5.87 | 5.88 | 5.91 | 5.88 | 5.21 | 200 µM
10 | O=[N+]([O-])c1ccccc1 [Nitrobenzene] | 193 µM | 6.01 | 5.97 | 6.01 | 6.12 | 6.23 | 6.14 | 5.65 | 200 µM
11 | O=C1CN(/N=C/c2ccc([N+](=O)[O-])o2)C(=O)N1 [Nitrofurantoin] | > 200 µM | 5.9 | 5.88 | 5.88 | 5.88 | 5.81 | 5.84 | 5.46 | 200 µM
12 | CNc1cnn(-c2cccc(C(F)(F)F)c2)c(=O)c1Cl [Norflurazon] | 104 µM | 5.99 | 5.96 | 6.11 | 6.19 | 6.05 | 5.79 | 5.15 | 200 µM
13 | O=C(NC(=O)c1c(F)cccc1F)Nc1ccc(OC(F)(F)C(F)OC(F)(F)F)c(Cl)c1 (stereo not drawn) [Novaluron] | > 200 µM | 5.83 | 5.74 | 5.85 | 5.88 | 5.61 | 5.12 | 4.56 | 50 µM
14 | CCOP(=S)(Oc1ccc([N+](=O)[O-])cc1)c1ccccc1 (stereo not drawn) [O-Ethyl O-(p-nitrophenyl) phenylphosphonothioate] | 6.09 µM | 5.28 | 5.07 | 4.53 | 4.38 | 4.13 | 4.01 | 3.39 | ≤ 0.5 µM
15 | C[Si]1(C)O[Si](C)(C)O[Si](C)(C)O[Si](C)(C)O1 [Octamethylcyclotetrasiloxane] | 183 µM | 5.99 | 5.98 | 5.96 | 5.97 | 5.98 | 6.05 | 4.48 | 200 µM
16 | CCCCCCCCn1sccc1=O [Octhilinone] | 34.9 µM | 5.47 | 5.54 | 5.56 | 5.58 | 4.2 | 3.68 | 3.36 | ≤ 0.5 µM
17 | CC(C)(C)CC(C)(C)c1ccc(O)c(-n2nc3ccccc3n2)c1 [Octrizole] | > 200 µM | 5.46 | 5.58 | 5.57 | 5.58 | 5.58 | 5.55 | 5.44 | ≤ 0.5 µM
18 | CCCCCCCCOC(=O)c1cc(O)c(O)c(O)c1 [Octyl gallate] | 55.1 µM | 5.79 | 5.87 | 5.84 | 5.88 | 4.63 | 4.47 | 3.77 | 50 µM
19 | CCCN(CCC)c1c([N+](=O)[O-])cc(S(N)(=O)=O)cc1[N+](=O)[O-] [Oryzalin] | > 200 µM | 5.9 | 5.91 | 5.84 | 5.72 | 5.27 | 4.95 | 4.56 | 50 µM
20 | CC(C)Oc1cc(-n2nc(C(C)(C)C)oc2=O)c(Cl)cc1Cl [Oxadiazon] | 120 µM | 6.14 | 6.23 | 6.09 | 5.95 | 6.05 | 5.95 | 3.29 | 200 µM
21 | CCOc1cc(Oc2ccc(C(F)(F)F)cc2Cl)ccc1[N+](=O)[O-] [Oxyfluorfen] | 3.64 µM | 5.57 | 5.42 | 4.64 | 3.99 | 3.63 | 3.63 | 3.46 | ≤ 0.5 µM

Row | SMILES | AC50 for larval growth inhibition [1] | mean nematode size ln(EXT) (ln) ([2]; 0.5 µM) | mean nematode size ln(EXT) (ln) ([2]; 1 µM) | mean nematode size ln(EXT) (ln) ([2]; 5 µM) | mean nematode size ln(EXT) (ln) ([2]; 10 µM) | mean nematode size ln(EXT) (ln) ([2]; 50 µM) | mean nematode size ln(EXT) (ln) ([2]; 100 µM) | mean nematode size ln(EXT) (ln) ([2]; 200 µM) | lowest effective concentration [3]
22 | CN(C)[C@@H]1C(=O)C(C(N)=O)=C(O)[C@@]2(O)C(=O)C3=C(O)c4c(O)cccc4[C@@](C)(O)[C@H]3[C@H](O)[C@@H]12 [Oxytetracycline dihydrate] | > 200 µM | 5.86 | 6.02 | 6.01 | 5.95 | 5.87 | 5.83 | 5.46 | 200 µM
23 | CN(C)[C@@H]1C(=O)C(C(N)=O)=C(O)[C@@]2(O)C(=O)C3=C(O)c4c(O)cccc4[C@@](C)(O)[C@H]3[C@H](O)[C@@H]12 [Oxytetracycline hydrochloride] | 81.4 µM | 5.99 | 5.96 | 5.95 | 6.01 | 5.9 | 5.64 | 5.48 | 100 µM
24 | COP(=S)(OC)Oc1ccc([N+](=O)[O-])cc1 [Parathion-methyl] | 15.1 µM | 5.71 | 5.8 | 5.52 | 5.25 | 3.72 | 3.66 | 3.7 | 5 µM
25 | CCOP(=S)(OCC)Oc1ccc([N+](=O)[O-])cc1 [Parathion] | 13.4 µM | 5.59 | 5.66 | 5.54 | 5.03 | 3.46 | 3.63 | 3.36 | ≤ 0.5 µM
26 | CCC(CC)Nc1c([N+](=O)[O-])cc(C)c(C)c1[N+](=O)[O-] [Pendimethalin] | > 200 µM | 5.89 | 5.93 | 5.86 | 5.77 | 5.86 | 6.13 | 5.44 | 200 µM
27 | Oc1c(Cl)c(Cl)c(Cl)c(Cl)c1Cl [Pentachlorophenol] | 146 µM | 5.82 | 5.94 | 5.92 | 5.89 | 5.6 | 5.01 | 4.2 | 50 µM
28 | Clc1nc(Cl)c(Cl)c(Cl)c1Cl [Pentachloropyridine] | > 200 µM | 5.87 | 5.81 | 5.83 | 5.82 | 5.6 | 5.48 | 5.59 | 50 µM
29 | O=C(O)C(F)(F)C(F)(F)C(F)(F)C(F)(F)C(F)(F)C(F)(F)C(F)(F)F [Pentadecafluorooctanoic acid ammonium salt] | > 200 µM | 5.88 | 5.86 | 5.85 | 5.84 | 5.83 | 5.68 | 5.43 | 200 µM
30 | N=C(N)c1ccc(OCCCCCOc2ccc(C(=N)N)cc2)cc1 [Pentamidine isethionate salt] | 149 µM | 6.04 | 6.06 | 6 | 5.89 | 5.44 | 5.05 | 4.25 | 50 µM
31 | CCCCC=O [Pentanal] | 185 µM | 5.98 | 5.93 | 5.9 | 6 | 6.05 | 6.02 | 5.56 | 200 µM
32 | O=C(O)C(F)(F)C(F)(F)C(F)(F)C(F)(F)C(F)(F)C(F)(F)C(F)(F)C(F)(F)C(F)(F)F [Perfluorodecanoic acid] | 14.6 µM | 5.85 | 5.87 | 5.14 | 4.6 | 4.06 | 3.96 | 3.16 | 5 µM
33 | O=C(O)C(F)(F)C(F)(F)C(F)(F)C(F)(F)C(F)(F)C(F)(F)F [Perfluoroheptanoic acid] | > 200 µM | 5.87 | 5.85 | 5.88 | 5.83 | 5.74 | 5.42 | 5.57 | 100 µM
34 | O=C(O)C(F)(F)C(F)(F)C(F)(F)C(F)(F)C(F)(F)C(F)(F)C(F)(F)C(F)(F)F [Perfluorononanoic acid] | 39 µM | 5.85 | 5.84 | 5.81 | 5.61 | 4.27 | 3.92 | 3.1 | 10 µM
35 | O=S(=O)(O)C(F)(F)C(F)(F)C(F)(F)C(F)(F)C(F)(F)C(F)(F)C(F)(F)C(F)(F)F [Perfluorooctane sulfonic acid] | 17.4 µM | 5.78 | 5.91 | 5.28 | 5.06 | 4.32 | 4.28 | 3.33 | 5 µM
36 | NS(=O)(=O)C(F)(F)C(F)(F)C(F)(F)C(F)(F)C(F)(F)C(F)(F)C(F)(F)C(F)(F)F [Perfluorooctanesulfonamide] | 7.84 µM | 5.89 | 5.86 | 5.26 | 4.64 | 3.6 | 3.86 | 3.65 | 5 µM
37 | O=C(O)C(F)(F)C(F)(F)C(F)(F)C(F)(F)C(F)(F)C(F)(F)C(F)(F)F [Perfluorooctanoic acid] | 60.2 µM | 6 | 6 | 5.94 | 6.02 | 5.75 | 5.24 | 5.31 | 100 µM
38 | O=C(O)C(F)(F)C(F)(F)C(F)(F)C(F)(F)C(F)(F)C(F)(F)C(F)(F)C(F)(F)C(F)(F)C(F)(F)F [Perfluoroundecanoic acid] | 4.14 µM | 5.8 | 5.77 | 4.55 | 3.95 | 3.63 | 3.64 | 3.2 | 5 µM
39 | CC1(C)C(C=C(Cl)Cl)C1C(=O)OCc1cccc(Oc2ccccc2)c1 (stereo not drawn) [Permethrin] | 11.2 µM | 5.91 | 5.9 | 5.67 | 5.56 | 5.41 | 4.98 | 5.24 | 10 µM
40 | c1ccc2c(c1)ccc1ccccc12 [Phenanthrene] | 5.56 µM | 5.95 | 5.89 | 5.84 | 3.51 | 3.73 | 4.1 | 3.29 | 10 µM
41 | CCC1(c2ccccc2)C(=O)NC(=O)NC1=O [Phenobarbital sodium salt] | > 200 µM | 5.87 | 5.82 | 5.88 | 5.86 | 5.87 | 5.91 | 5.65 | 200 µM
42 | CCC(C)(C)c1ccc(O)c(C(C)(C)CC)c1 [Phenol, 2,4-bis(1,1-dimethylpropyl)-] | 175 µM | 5.8 | 5.87 | 5.76 | 5.65 | 5.4 | 4.93 | 4.37 | 10 µM
